Data: US9738634B2, “Heterocyclic amide compound and herbicide” (SYNGENTA PARTICIPATIONS AG, priority 2013, dated 2017)

Legend:
Assay type in all cases: in vivo
Conditions in all cases: treatment dosage 315 g/ha
wild oat [1] = test: Test Example 3: weedkilling efficacy through soil treatment; G: wild oat
How it was run: (§1)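 Crop and weed responses were judged three weeks after a uniform surface spray of the water-diluted emulsion at the given g/ha rate. Seeds sat beneath about 1.5 cm of sterilized diluvial soil, and boxes stood in a greenhouse at 25 to 30° C.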

directly sown rice [2] = test: Test Example 3: soil treatment, effect on crop; b: directly sown rice
How it was run: as §1

oval-leafed pondweed [3] = test: Test Example 1: weedkilling efficacy, preemergent weed treatment in the submerged state; C: oval-leafed pondweed
How it was run: (§2)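 Visual scores against set criteria were taken 3 weeks after treatment. Compounds, as diluted emulsions at specified g/ha, went onto the water surface of 4 cm-flooded alluvial soil pots on the day weeds were sown and 2.5-leaf rice was transplanted; greenhouse held 25–30 °C.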

barnyard grass [4] = test: Test Example 1: weedkilling efficacy, preemergent weed treatment in the submerged state; A: barnyard grass
How it was run: as §2

redroot pigweed [5] = test: Test Example 4: weedkilling efficacy by foliar treatment; L: redroot pigweed
How it was run: (§3)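 Seeds are spot-sown into sterilized diluvial soil and covered with about 1.5 cm of soil. After 14 days' greenhouse growth at 25 to 30° C, plants are sprayed on stems and leaves with diluted emulsion at the stated g/ha rate, then scored at 3 weeks.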

wheat [6] = test: Test Example 4: foliar treatment, effect on crop; e: wheat
How it was run: as §3

Indian mallow [7] = test: Test Example 4: weedkilling efficacy by foliar treatment; K: Indian mallow
How it was run: as §3

chickweed [8] = test: Test Example 4: weedkilling efficacy by foliar treatment; N: chickweed
How it was run: as §3

birds-eye speedwell [9] = test: Test Example 3: weedkilling efficacy through soil treatment; p: birds-eye speedwell
How it was run: as §1

corn [10] = test: Test Example 3: soil treatment, effect on crop; c: corn
How it was run: as §1

transplanted rice = test: Test Example 1: preemergent weed treatment in the submerged state, effect on crop; a: transplanted rice
How it was run: as §2

rapeseed [11] = test: Test Example 3: soil treatment, effect on crop; g: rapeseed
How it was run: as §1

common wind-grass [12] = test: Test Example 4: weedkilling efficacy by foliar treatment; J: common wind-grass
How it was run: as §3

directly sown rice [13] = test: Test Example 4: foliar treatment, effect on crop; b: directly sown rice
How it was run: as §3

crabgrass [14] = test: Test Example 4: weedkilling efficacy by foliar treatment; D: crabgrass
How it was run: as §3

black-grass [15] = test: Test Example 4: weedkilling efficacy by foliar treatment; H: black-grass
How it was run: as §3

Indian mallow [16] = test: Test Example 3: weedkilling efficacy through soil treatment; K: Indian mallow
How it was run: as §1

beet [17] = test: Test Example 4: foliar treatment, effect on crop; f: beet
How it was run: as §3

green foxtail [18] = test: Test Example 3: weedkilling efficacy through soil treatment; E: green foxtail
How it was run: as §1

soybean [19] = test: Test Example 3: soil treatment, effect on crop; d: soybean
How it was run: as §1

Italian ryegrass [20] = test: Test Example 4: weedkilling efficacy by foliar treatment; I: Italian ryegrass
How it was run: as §3

Italian ryegrass [21] = test: Test Example 3: weedkilling efficacy through soil treatment; I: Italian ryegrass
How it was run: as §1

birds-eye speedwell [22] = test: Test Example 4: weedkilling efficacy by foliar treatment; p: birds-eye speedwell
How it was run: as §3

chickweed [23] = test: Test Example 3: weedkilling efficacy through soil treatment; N: chickweed
How it was run: as §1

crabgrass [24] = test: Test Example 3: weedkilling efficacy through soil treatment; D: crabgrass
How it was run: as §1

redroot pigweed [25] = test: Test Example 3: weedkilling efficacy through soil treatment; L: redroot pigweed
How it was run: as §1

corn [26] = test: Test Example 4: foliar treatment, effect on crop; c: corn
How it was run: as §3

black-grass [27] = test: Test Example 3: weedkilling efficacy through soil treatment; H: black-grass
How it was run: as §1

soybean [28] = test: Test Example 4: foliar treatment, effect on crop; d: soybean
How it was run: as §3

common wind-grass [29] = test: Test Example 3: weedkilling efficacy through soil treatment; J: common wind-grass
How it was run: as §1

rapeseed [30] = test: Test Example 4: foliar treatment, effect on crop; g: rapeseed
How it was run: as §3

beet [31] = test: Test Example 3: soil treatment, effect on crop; f: beet
How it was run: as §1

bulrush [32] = test: Test Example 1: weedkilling efficacy, preemergent weed treatment in the submerged state; B: bulrush
How it was run: as §2

barnyard grass [33] = test: Test Example 3: weedkilling efficacy through soil treatment; F: barnyard grass
How it was run: as §1

green foxtail [34] = test: Test Example 4: weedkilling efficacy by foliar treatment; E: green foxtail
How it was run: as §3

wild oat [35] = test: Test Example 4: weedkilling efficacy by foliar treatment; G: wild oat
How it was run: as §3

wheat [36] = test: Test Example 3: soil treatment, effect on crop; e: wheat
How it was run: as §1

oval-leafed pondweed [37] = test: Test Example 2: weedkilling efficacy, growth period weed treatment in the submerged state; C: oval-leafed pondweed
How it was run: (§4)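 Barnyard grass, bulrush and oval-leafed pondweed sown in alluvial soil under 4 cm flooding, greenhouse 25 to 30° C. At 1-2 leaf stage, water-diluted emulsion applied to the water surface at stated g/ha dosages; effects scored 3 weeks later.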

catchweed = test: Test Example 4: weedkilling efficacy by foliar treatment; O: catchweed
How it was run: as §3

bulrush [38] = test: Test Example 2: weedkilling efficacy, growth period weed treatment in the submerged state; B: bulrush
How it was run: as §4

barnyard grass [39] = test: Test Example 4: weedkilling efficacy by foliar treatment; F: barnyard grass
How it was run: as §3

barnyard grass [40] = test: Test Example 2: weedkilling efficacy, growth period weed treatment in the submerged state; A: barnyard grass
How it was run: as §4

Compound: CC1=C(c2ccccc2)C(=O)N(C(C)(C)C(=O)Nc2cccc(C(F)F)n2)CO1 [B-2-55]
- G (wild oat) weedkilling efficacy grade (wild oat [1]): 4 (weed kill ratio 70% or more, less than 90%)
- b (directly sown rice) effect on crop grade (directly sown rice [2]): 4 (weed kill ratio 70% or more, less than 90%)
- C (oval-leafed pondweed) weedkilling efficacy grade (oval-leafed pondweed [3]): 5 (weed kill ratio 90% or more, (practically complete withering))
- A (barnyard grass) weedkilling efficacy grade (barnyard grass [4]): 5 (weed kill ratio 90% or more, (practically complete withering))
- L (redroot pigweed) weedkilling efficacy grade (redroot pigweed [5]): 4 (weed kill ratio 70% or more, less than 90%)
- e (wheat) effect on crop grade (wheat [6]): 2 (weed kill ratio 20% or more, less than 40%)
- K (Indian mallow) weedkilling efficacy grade (Indian mallow [7]): 4 (weed kill ratio 70% or more, less than 90%)
- N (chickweed) weedkilling efficacy grade (chickweed [8]): 4 (weed kill ratio 70% or more, less than 90%)
- P (birds-eye speedwell) weedkilling efficacy grade (birds-eye speedwell [9]): 5 (weed kill ratio 90% or more, (practically complete withering))
- c (corn) effect on crop grade (corn [10]): 0 (weed kill ratio 5% or less (practically no effect))
- a (transplanted rice) effect on crop grade (transplanted rice): 3 (weed kill ratio 40% or more, less than 70%)
- g (rapeseed) effect on crop grade (rapeseed [11]): 2 (weed kill ratio 20% or more, less than 40%)
- J (common wind-grass) weedkilling efficacy grade (common wind-grass [12]): 5 (weed kill ratio 90% or more, (practically complete withering))
- b (directly sown rice) effect on crop grade (directly sown rice [13]): 5 (weed kill ratio 90% or more, (practically complete withering))
- D (crabgrass) weedkilling efficacy grade (crabgrass [14]): 5 (weed kill ratio 90% or more, (practically complete withering))
- H (black-grass) weedkilling efficacy grade (black-grass [15]): 5 (weed kill ratio 90% or more, (practically complete withering))
- K (Indian mallow) weedkilling efficacy grade (Indian mallow [16]): 1 (weed kill ratio 5% or more, less than 20%)
- f (beet) effect on crop grade (beet [17]): 4 (weed kill ratio 70% or more, less than 90%)
- E (green foxtail) weedkilling efficacy grade (green foxtail [18]): 5 (weed kill ratio 90% or more, (practically complete withering))
- d (soybean) effect on crop grade (soybean [19]): 3 (weed kill ratio 40% or more, less than 70%)
- I (Italian ryegrass) weedkilling efficacy grade (Italian ryegrass [20]): 4 (weed kill ratio 70% or more, less than 90%)
- I (Italian ryegrass) weedkilling efficacy grade (Italian ryegrass [21]): 5 (weed kill ratio 90% or more, (practically complete withering))
- P (birds-eye speedwell) weedkilling efficacy grade (birds-eye speedwell [22]): 5 (weed kill ratio 90% or more, (practically complete withering))
- N (chickweed) weedkilling efficacy grade (chickweed [23]): 4 (weed kill ratio 70% or more, less than 90%)
- D (crabgrass) weedkilling efficacy grade (crabgrass [24]): 5 (weed kill ratio 90% or more, (practically complete withering))
- L (redroot pigweed) weedkilling efficacy grade (redroot pigweed [25]): 4 (weed kill ratio 70% or more, less than 90%)
- c (corn) effect on crop grade (corn [26]): 4 (weed kill ratio 70% or more, less than 90%)
- H (black-grass) weedkilling efficacy grade (black-grass [27]): 5 (weed kill ratio 90% or more, (practically complete withering))
- d (soybean) effect on crop grade (soybean [28]): 4 (weed kill ratio 70% or more, less than 90%)
- J (common wind-grass) weedkilling efficacy grade (common wind-grass [29]): 5 (weed kill ratio 90% or more, (practically complete withering))
- g (rapeseed) effect on crop grade (rapeseed [30]): 4 (weed kill ratio 70% or more, less than 90%)
- f (beet) effect on crop grade (beet [31]): 3 (weed kill ratio 40% or more, less than 70%)
- B (bulrush) weedkilling efficacy grade (bulrush [32]): 5 (weed kill ratio 90% or more, (practically complete withering))
- F (barnyard grass) weedkilling efficacy grade (barnyard grass [33]): 5 (weed kill ratio 90% or more, (practically complete withering))
- E (green foxtail) weedkilling efficacy grade (green foxtail [34]): 5 (weed kill ratio 90% or more, (practically complete withering))
- G (wild oat) weedkilling efficacy grade (wild oat [35]): 3 (weed kill ratio 40% or more, less than 70%)
- e (wheat) effect on crop grade (wheat [36]): 0 (weed kill ratio 5% or less (practically no effect))
- C (oval-leafed pondweed) weedkilling efficacy grade (oval-leafed pondweed [37]): 5 (weed kill ratio 90% or more, (practically complete withering))
- O (catchweed) weedkilling efficacy grade (catchweed): 5 (weed kill ratio 90% or more, (practically complete withering))
- B (bulrush) weedkilling efficacy grade (bulrush [38]): 5 (weed kill ratio 90% or more, (practically complete withering))
- F (barnyard grass) weedkilling efficacy grade (barnyard grass [39]): 5 (weed kill ratio 90% or more, (practically complete withering))
- A (barnyard grass) weedkilling efficacy grade (barnyard grass [40]): 5 (weed kill ratio 90% or more, (practically complete withering))
